Measurements reported in the CheMixHub viscosity set.

Assay: xn = mol fraction of the nth substance listed

CC(C)(C)N + CCOC(C)=O
303.15 K, 101 kPa
Settings	viscosity [mPa·s]
x1 = 0.168	0.4142
x1 = 0.2336	0.4185
x1 = 0.3514	0.424
x1 = 0.5046	0.4329
x1 = 0.5951	0.4363
x1 = 0.6618	0.4371
x1 = 0.8008	0.442
x1 = 0.8723	0.4431

CCCCCCCCO + CCOC(C)=O
viscosity [mPa·s]
Settings	298.15 K	303.15 K	308.15 K	313.15 K
101 kPa, x1 = 0.0646	0.512	0.484	0.455	0.429
101 kPa, x1 = 0.1344	0.629	0.589	0.55	0.513
101 kPa, x1 = 0.2103	0.783	0.727	0.673	0.623
101 kPa, x1 = 0.2928	0.991	0.911	0.834	0.766
101 kPa, x1 = 0.3832	1.279	1.164	1.054	0.958
101 kPa, x1 = 0.4823	1.689	1.519	1.36	1.223
101 kPa, x1 = 0.5917	2.298	–	1.806	1.605
101 kPa, x1 = 0.713	3.246	2.844	2.482	2.179
101 kPa, x1 = 0.8483	4.801	4.144	3.563	3.083
101.33 kPa, x2 = 0.141	4.383	3.809	3.324	–
101.33 kPa, x2 = 0.2701	2.825	2.512	2.215	–
101.33 kPa, x2 = 0.3878	1.985	1.777	1.596	–
101.33 kPa, x2 = 0.4964	1.449	1.292	1.152	–
101.33 kPa, x2 = 0.5965	1.088	0.992	0.907	–
101.33 kPa, x2 = 0.6891	0.841	0.798	0.724	–
101.33 kPa, x2 = 0.7641	0.712	0.653	0.606	–
101.33 kPa, x2 = 0.8552	0.585	0.542	0.51	–
101.33 kPa, x2 = 0.9301	0.496	0.468	0.446	–

CCOC(F)(F)C(F)(C(F)(F)F)C(F)(F)F + CCOC(F)(F)C(F)(F)C(F)(F)C(F)(F)F
100 kPa, x2 = 0.422
Settings	viscosity [mPa·s]
298.16 K	0.6423
303.18 K	0.5987

CC(C)(C)N + CCOCCO
308.15 K, 101 kPa
Settings	viscosity [mPa·s]
x2 = 0.1082	0.5474
x2 = 0.2145	0.6798
x2 = 0.3189	0.8102
x2 = 0.4214	0.9309
x2 = 0.5221	1.046
x2 = 0.6211	1.149
x2 = 0.7182	1.245
x2 = 0.8138	1.327
x2 = 0.9077	1.399

BrC(Br)Br + CN(C)C=O
Settings	viscosity [mPa·s]
298 K, 101.3 kPa, x1 = 0.1418	1.075
298 K, 101.3 kPa, x1 = 0.2704	1.355
298 K, 101.3 kPa, x1 = 0.463	1.794
298 K, 101.3 kPa, x1 = 0.6145	2.007
298 K, 101.3 kPa, x1 = 0.7144	2.037
298 K, 101.3 kPa, x1 = 0.818	2.016
298.15 K, 101 kPa, x1 = 0.1458	1.048
298.15 K, 101 kPa, x1 = 0.1971	1.237
298.15 K, 101 kPa, x1 = 0.2942	1.486
298.15 K, 101 kPa, x1 = 0.3961	1.703
298.15 K, 101 kPa, x1 = 0.4962	1.956
298.15 K, 101 kPa, x1 = 0.5972	2.102
298.15 K, 101 kPa, x1 = 0.6959	2.122
298.15 K, 101 kPa, x1 = 0.7985	2.147
298.15 K, 101 kPa, x1 = 0.8992	2.074
303.15 K, 101 kPa, x1 = 0.1458	0.9843
303.15 K, 101 kPa, x1 = 0.1971	1.162
303.15 K, 101 kPa, x1 = 0.2942	1.371
303.15 K, 101 kPa, x1 = 0.3961	1.567
303.15 K, 101 kPa, x1 = 0.4962	1.793
303.15 K, 101 kPa, x1 = 0.5972	1.927
303.15 K, 101 kPa, x1 = 0.6959	1.953
303.15 K, 101 kPa, x1 = 0.7985	1.966
303.15 K, 101 kPa, x1 = 0.8992	1.934
308.15 K, 101 kPa, x1 = 0.1458	0.9091
308.15 K, 101 kPa, x1 = 0.1971	1.066
308.15 K, 101 kPa, x1 = 0.2942	1.267
308.15 K, 101 kPa, x1 = 0.3961	1.443
308.15 K, 101 kPa, x1 = 0.4962	1.643
308.15 K, 101 kPa, x1 = 0.5972	1.765
308.15 K, 101 kPa, x1 = 0.6959	1.801
308.15 K, 101 kPa, x1 = 0.7985	1.839
308.15 K, 101 kPa, x1 = 0.8992	1.797
313.15 K, 101 kPa, x1 = 0.1458	0.8479
313.15 K, 101 kPa, x1 = 0.1971	1
313.15 K, 101 kPa, x1 = 0.2942	1.173
313.15 K, 101 kPa, x1 = 0.3961	1.329
313.15 K, 101 kPa, x1 = 0.4962	1.513
313.15 K, 101 kPa, x1 = 0.5972	1.622
313.15 K, 101 kPa, x1 = 0.6959	1.66
313.15 K, 101 kPa, x1 = 0.7985	1.705
313.15 K, 101 kPa, x1 = 0.8992	1.679
318 K, 101.33 kPa, x1 = 0.1317	0.819
318 K, 101.33 kPa, x1 = 0.2705	1.046
318 K, 101.33 kPa, x1 = 0.4636	1.313
318 K, 101.33 kPa, x1 = 0.6142	1.471
318 K, 101.33 kPa, x1 = 0.7204	1.518
318 K, 101.33 kPa, x1 = 0.8296	1.519
